# Legend:
# COX-2 = assay: IL-1β-induced COX-2 expression in L− and L+ amnion cells; type: cell-based, human
# Experimental: (§1) Placentae were obtained from patients at term either at elective Caesarean section prior to labour (L−) or following spontaneous labour onset and vaginal delivery (L+). Amnion cells were prepared as described in Bennett et al., (1989). Briefly, the amnion was separated from the placenta, washed 3× in PBS, cut into strips, and incubated in 0.51 mM EDTA in PBS for 15 min. The strips were washed in PBS 2× and digested with 2.5 mg/ml dispase in serum-free DMEM for 35 min at 37° C. The amnion was then shaken vigorously in DMEM, 10% FCS to dissociate the cells, the remaining strips discarded, and the cell suspension pelleted at 175 g for 10 min and cultured in DMEM, 10% FCS (Sigma), 1% L-glutamine, 1% penicillin-streptomycin.
# Protein samples (20-70 μg) were mixed with Laemmli sample buffer (1:1) containing β-mercaptoethanol (5%), and boiled for 5 min. Proteins were then separated by SDS-PAGE (12-14% gels) and transferred onto PVDF membrane (Amersham Pharmacia Biotech). The membranes were blocked overnight in 5% non-fat milk prepared in PBS-T buffer, at 4° C. […] The blots were then incubated with HRP-conjugated secondary antibody (diluted 1:2000 in 1% non-fat milk in PBS-T buffer) for 1 h and washed three times (10 min each) in PBS-T. Signal detection was achieved using enhanced chemi-luminescence (ECL plus system, Amersham Pharmacia Biotech) according to manufacturer's instructions. […]
# NF-κB = assay: Western immunoblot of NF-κB activation (p65, p50, IκB) in amnion cells; type: cell-based, human; conditions: L−
# Experimental: Western immunoblots of nuclear or cytosolic protein extracts from (A) myometrial cells, (B) L− amnion cells, and (C) L+amnion cells treated with 15dPGJ2 or vehicle for 2 h+/−IL-1, stimulation (15 min). Blots probed with antibodies against p65, p50 or IκBα.
# as §1
# Nuclear and cytosolic protein extracts were obtained from cultured amnion cells as described by Schreiber et al (1989). For nuclear/cytosolic fractionation, confluent cell monolayers were scraped and lysed using a buffer containing 10 mM HEPES, 10 mM KCl, 0.1 mM EDTA, 0.1 mM EGTA, 2 mM DTT, 1% (v/v) NP-40 and complete protease inhibitor tablets (CPIs, Roche), diluted to manufacturer's instructions. Cell lysates were incubated on ice for 10 min and NP-40 added to a final concentration of 1% (v/v). Lysates were vortexed for 10 secs and centrifuged for 30 secs at 4° C., 12000 g. The supernatants were retained as the cytosolic protein extracts. The pellets were resuspended in buffer containing 10 mM HEPES, 10 mM KCl, 0.1 mM EDTA, 0.1 mM EGTA, 2 mM DTT, 400 mM NaCl, 1% NP-40 (v/v) and CPIs. Samples were shaken vigorously for 15 min in an ice bath. The nuclear protein extracts were obtained in the supernatant following a 5 min centrifugation at 4° C., 12000 g.
# Protein samples (20-70 μg) were mixed with Laemmli sample buffer (1:1) containing β-mercaptoethanol (5%), and boiled for 5 min. Proteins were then separated by SDS-PAGE (12-14% gels) and transferred onto PVDF membrane (Amersham Pharmacia Biotech). The membranes were blocked overnight in 5% non-fat milk prepared in PBS-T buffer, at 4° C. The blots were incubated with the primary antibody in 1% non-fat milk in PBS-T buffer for 1 h, and washed three times (10 min each) in PBS-T with vigorous shaking. The blots were then incubated with HRP-conjugated secondary antibody (diluted 1:2000 in 1% non-fat milk in PBS-T buffer) for 1 h and washed three times (10 min each) in PBS-T. Signal detection was achieved using enhanced chemi-luminescence (ECL plus system, Amersham Pharmacia Biotech) according to manufacturer's instructions. […]
# IKKα or IKKβ = assay: Western immunoblot of IKK protein expression in myometrial cells; type: cell-based, human
# Experimental: Western immunoblots of cytosolic extracts from myometrial cells (A) treated with 15dPGJ2 for 2 h+/−IL1b for 15 min; probed for IKK, and (B) treated with […] 15dPGJ2, […] MG132 or vehicle for 2 h, +/−IL-1β for 15 min; probed for IκBα.
# Protein samples (20-70 μg) were mixed with Laemmli sample buffer (1:1) containing β-mercaptoethanol (5%), and boiled for 5 min. Proteins were then separated by SDS-PAGE (12-14% gels) and transferred onto PVDF membrane (Amersham Pharmacia Biotech). The membranes were blocked overnight in 5% non-fat milk prepared in PBS-T buffer, at 4° C. The blots were incubated with the primary antibody in 1% non-fat milk in PBS-T buffer for 1 h, and washed three times (10 min each) in PBS-T with vigorous shaking. The blots were then incubated with HRP-conjugated secondary antibody (diluted 1:2000 in 1% non-fat milk in PBS-T buffer) for 1 h and washed three times (10 min each) in PBS-T. Signal detection was achieved using enhanced chemi-luminescence (ECL plus system, Amersham Pharmacia Biotech) according to manufacturer's instructions.
# 30-50 μg protein extracts were subjected to SDS-PAGE and Western immuno-blotting. Secondary antibodies were IgG-HRP and ECL Plus detection kit (Amersham Pharmacia Biotech, Amersham Place, Little Chalfont, Bucks, HP7 9NA) was used for visualisation.
# [1] = tested on: LPS-induced inflammatory responses in placental homogenates; assay: Mouse model of preterm labour: placental inflammatory responses after intrauterine LPS ± 15d-PGJ2; type: in vivo, mice
# Experimental: Concentrations of IL-1 (in placental homogenates collected from gestation day 16 mice 6 hours after intrauterine injection of 250 μg LPS+vehicle or 250 μg LPS+4 μg 15d-PGJ2. * denotes statistically significant difference (t-test (p<0.05)).
# Relative concentrations of phospho-p65 in placental homogenates collected from gestation day 16 mice 6 hours after intrauterine injection of 250 μg LPS+vehicle or 250 μg LPS+4 μg 15d-PGJ2. * denotes statistically significant difference (t-test (p<0.05)).
# Surgery was performed on timed pregnant MF1 mice at day 16 of gestation. After deep maternal anaesthesia was attained, a minilaparotomy was performed in the lower abdomen. The uterine horns were exposed through the incision and preterm labour was induced by the intrauterine injection of […] lipopolysaccharide (LPS, Sigma) into the gravid horn. This was immediately followed by injection of 4 μg […] (Cayman), or an equal volume of vehicle (methyl acetate), at the same site. The uterus was then returned to the abdomen and the fascia and skin were closed with continuous vicryl sutures.
# Mice were sacrificed 6 hours after injection of LPS±15d-PGJ2. Placentae were washed in phosphate buffered saline (PBS), flash frozen in liquid nitrogen and stored at −80° C. until further processing. Fetuses were washed in PBS, then immediately fixed in 4% paraformaldehyde for 24 h and then stored in 70% ethanol until further processing. Placentae were homogenized for 1 minute in the presence of lysis buffer comprising 400 mM KCl, 20 mM HEPES pH7.4, 1 mM dithiothreitol, 20% glycerol and 5% (v/v) protease inhibitor cocktail.
# Homogenate levels of Interleukin-1β (IL-1β) and tumour necrosis factor α (TNFα) were determined in placental lysates by ELISA (R and D systems) according to manufacturers instructions. Total protein concentrations were determined for each homogenate and IL-1β and TNFα levels were expressed as pg/mg total protein. […] Phosphorylated p65 (phospho-p65) was detected by western immunoblotting using a specific antibody (Santa Cruz) and quantified by densitometric analysis.
# [2] = proximal placentae, gestation day 16 mice, 6 hours after intrauterine 250 μg LPS+4 μg 15d-PGJ2, p<0.05
smiles,measurement,setting,value
"CCCCCC=CC=C1C(=O)C=C[C@@H]1CC=CCCCC(=O)O [15d-PGJ2, 15-deoxy-Δ^12,14prostaglandin J2]",IL-1β-induced COX-2 expression,COX-2,inhibited
same,IL-1β-induced IκBα and IκBβ degradation,NF-κB,inhibition
same,IL-1β-induced p50 phosphorylation,NF-κB,inhibited
same,IL-1β-induced p65 nuclear translocation,NF-κB,inhibited
same,IKKα or IKKβ protein expression,IKKα or IKKβ,had no effect
same,TNFα levels according to drug treatment,"[1]; placentae, 6 hours after intrauterine LPS+15d-PGJ2 vs LPS+ vehicle",not significantly altered
same,Levels of IL-1β lower than LPS+ vehicle,[1]; [2],approximately 40%
same,phospho-p65 levels lower than LPS+ vehicle,[1]; [2],approximately 35%

# — patent publication US20070270392A1, “Use of a Cyclopentenone Prostaglandin for Delaying the Onset and/or Preventing the Continuation of Labour” (Imperial College Innovations Limited, priority 2003, published 2007)
